Assay results taken from PMC4201332 (ACS Chemical Biology, 2014).
Blank lines part the entries; values can stand above or below the compound they belong to.

What was measured:
[1] = molecular target: hmGlu1 (Homo sapiens, UniProt Q13255); assay: Calcium mobilization mGlu1 PAM potency assay; type: cell-based; settings: for Emax: T-REx-293, read-out: hmGlu1 % Glu Max (±SEM)
[2] = system: amphetamine-induced hyperlocomotion in WT rats; assay: Amphetamine-induced hyperlocomotion; type: in vivo, rat; settings: doses up to 100 mg/kg i.p.
[3] = molecular target: T1, mGlu1 WT receptor (Homo sapiens, UniProt Q13255); type: cell-based
[4] = molecular target: hmGlu4 (Homo sapiens, UniProt Q14833); assay: Calcium mobilization mGlu4 assay; type: cell-based
[5] = molecular target: T1, mGlu1 WT receptor; type: cell-based; settings: 10 μM PAM
[6] = molecular target: mGlu1 P1015A mutant (Homo sapiens, UniProt Q13255, P1015A); assay: Calcium mobilization in stable Sz mutant cell line; type: cell-based; settings: agonist DHPG
[7] = system: mGlu1 Sz mutants; assay: Calcium mobilization in stable cell lines expressing schizophrenia; type: cell-based, human
[8] = molecular target: mGlu1 K563N mutant (Homo sapiens, UniProt Q13255, K563N); assay: Calcium mobilization in stable Sz mutant cell line; type: cell-based; settings: agonist DHPG
[9] = molecular target: T2, CYP1A2 (Homo sapiens, UniProt P05177); assay: Cytochrome P450 inhibition; type: in vitro ADME
T2 sequence (P05177 1-516): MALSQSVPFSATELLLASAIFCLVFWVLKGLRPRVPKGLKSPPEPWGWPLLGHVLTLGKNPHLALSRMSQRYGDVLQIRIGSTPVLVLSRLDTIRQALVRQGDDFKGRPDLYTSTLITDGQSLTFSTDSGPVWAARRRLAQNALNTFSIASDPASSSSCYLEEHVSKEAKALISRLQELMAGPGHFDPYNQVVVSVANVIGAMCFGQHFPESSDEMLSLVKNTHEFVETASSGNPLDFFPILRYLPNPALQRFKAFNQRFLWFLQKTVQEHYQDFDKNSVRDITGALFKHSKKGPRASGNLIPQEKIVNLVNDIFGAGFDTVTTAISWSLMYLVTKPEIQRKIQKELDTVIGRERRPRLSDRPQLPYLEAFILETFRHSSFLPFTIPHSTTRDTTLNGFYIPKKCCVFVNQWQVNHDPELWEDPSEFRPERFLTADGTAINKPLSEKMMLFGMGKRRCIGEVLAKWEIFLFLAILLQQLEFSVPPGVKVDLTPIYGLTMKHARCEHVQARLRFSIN

[10] = molecular target: CYP2D6 (Homo sapiens, UniProt P10635); assay: Cytochrome P450 inhibition; type: in vitro ADME
[11] = molecular target: CYP3A4 (Homo sapiens, UniProt P08684); assay: Cytochrome P450 inhibition; type: in vitro ADME
[12] = molecular target: CYP2C9 (Homo sapiens, UniProt P11712); assay: Cytochrome P450 inhibition; type: in vitro ADME
[13] = hmGlu1 EC50, calcium mobilization, average of n = 3 performed in triplicate

Sequence of hmGlu1 (Q13255 19-1194): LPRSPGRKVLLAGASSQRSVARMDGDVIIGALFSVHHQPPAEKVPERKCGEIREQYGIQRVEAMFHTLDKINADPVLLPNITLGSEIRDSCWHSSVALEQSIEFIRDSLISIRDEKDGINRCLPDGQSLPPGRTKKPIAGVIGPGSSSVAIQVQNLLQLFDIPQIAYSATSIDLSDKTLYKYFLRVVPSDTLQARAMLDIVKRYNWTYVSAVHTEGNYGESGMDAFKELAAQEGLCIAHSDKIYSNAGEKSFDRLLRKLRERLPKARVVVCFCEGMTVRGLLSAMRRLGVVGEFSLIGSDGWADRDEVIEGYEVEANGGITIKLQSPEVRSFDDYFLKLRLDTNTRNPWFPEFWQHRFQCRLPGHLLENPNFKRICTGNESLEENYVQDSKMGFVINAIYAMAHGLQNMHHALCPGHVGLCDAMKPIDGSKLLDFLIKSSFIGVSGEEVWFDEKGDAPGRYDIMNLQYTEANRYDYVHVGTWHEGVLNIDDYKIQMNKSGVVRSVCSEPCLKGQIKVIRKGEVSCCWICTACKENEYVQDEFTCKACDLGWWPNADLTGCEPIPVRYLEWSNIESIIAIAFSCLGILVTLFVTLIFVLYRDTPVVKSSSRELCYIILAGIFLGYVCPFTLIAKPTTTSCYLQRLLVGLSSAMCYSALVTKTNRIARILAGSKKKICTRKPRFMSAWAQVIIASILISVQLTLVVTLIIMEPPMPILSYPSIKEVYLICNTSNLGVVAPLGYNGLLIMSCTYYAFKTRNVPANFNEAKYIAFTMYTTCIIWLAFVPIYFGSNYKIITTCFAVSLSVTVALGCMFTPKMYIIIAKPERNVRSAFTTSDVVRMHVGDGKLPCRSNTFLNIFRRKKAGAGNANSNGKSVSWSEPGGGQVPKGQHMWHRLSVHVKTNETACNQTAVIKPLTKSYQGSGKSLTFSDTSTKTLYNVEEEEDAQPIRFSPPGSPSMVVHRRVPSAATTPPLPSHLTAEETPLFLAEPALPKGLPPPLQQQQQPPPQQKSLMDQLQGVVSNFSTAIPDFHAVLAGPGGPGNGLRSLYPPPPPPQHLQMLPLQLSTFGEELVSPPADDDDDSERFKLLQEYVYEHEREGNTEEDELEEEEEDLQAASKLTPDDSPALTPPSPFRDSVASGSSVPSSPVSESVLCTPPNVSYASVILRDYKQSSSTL
T1 sequence (Q13255 19-1194): as above
Sequence of hmGlu4 (Q14833 33-912): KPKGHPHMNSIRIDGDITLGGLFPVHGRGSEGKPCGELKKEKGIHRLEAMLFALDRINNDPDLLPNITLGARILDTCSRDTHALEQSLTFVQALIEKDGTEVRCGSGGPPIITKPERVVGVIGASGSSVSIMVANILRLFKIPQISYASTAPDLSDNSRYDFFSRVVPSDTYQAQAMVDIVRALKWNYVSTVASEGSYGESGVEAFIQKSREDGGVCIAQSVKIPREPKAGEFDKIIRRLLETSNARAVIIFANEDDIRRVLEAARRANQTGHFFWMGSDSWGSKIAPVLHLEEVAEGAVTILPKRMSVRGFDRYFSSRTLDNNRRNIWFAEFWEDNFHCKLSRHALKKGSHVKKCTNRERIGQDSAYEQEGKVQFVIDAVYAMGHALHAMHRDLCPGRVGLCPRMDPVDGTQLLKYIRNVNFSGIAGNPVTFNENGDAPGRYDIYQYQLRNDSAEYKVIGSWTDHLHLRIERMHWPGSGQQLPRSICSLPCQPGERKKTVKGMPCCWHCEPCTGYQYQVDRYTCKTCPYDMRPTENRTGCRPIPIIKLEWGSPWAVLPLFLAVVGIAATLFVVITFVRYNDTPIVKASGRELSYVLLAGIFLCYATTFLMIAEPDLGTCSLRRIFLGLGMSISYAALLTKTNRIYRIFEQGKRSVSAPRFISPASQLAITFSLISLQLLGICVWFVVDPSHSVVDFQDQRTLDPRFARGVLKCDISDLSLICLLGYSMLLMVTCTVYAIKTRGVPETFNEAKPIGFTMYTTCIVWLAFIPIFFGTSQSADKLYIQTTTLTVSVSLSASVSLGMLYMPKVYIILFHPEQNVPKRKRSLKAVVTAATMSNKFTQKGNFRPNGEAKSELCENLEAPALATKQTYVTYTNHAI
Sequence of CYP3A4 (P08684 whole entry): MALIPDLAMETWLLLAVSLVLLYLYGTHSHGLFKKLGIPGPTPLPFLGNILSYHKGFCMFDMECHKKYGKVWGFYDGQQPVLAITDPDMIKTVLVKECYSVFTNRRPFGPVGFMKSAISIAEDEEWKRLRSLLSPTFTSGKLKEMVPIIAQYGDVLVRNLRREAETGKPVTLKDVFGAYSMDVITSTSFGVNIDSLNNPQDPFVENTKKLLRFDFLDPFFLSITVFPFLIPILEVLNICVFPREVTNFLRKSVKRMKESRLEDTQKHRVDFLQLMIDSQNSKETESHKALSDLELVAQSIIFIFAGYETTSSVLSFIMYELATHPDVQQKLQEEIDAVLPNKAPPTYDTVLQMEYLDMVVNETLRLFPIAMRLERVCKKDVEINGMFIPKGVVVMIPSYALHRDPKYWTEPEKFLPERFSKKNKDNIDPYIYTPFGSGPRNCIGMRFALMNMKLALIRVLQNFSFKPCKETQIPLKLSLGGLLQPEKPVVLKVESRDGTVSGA
Sequence of CYP2C9 (P11712 whole entry): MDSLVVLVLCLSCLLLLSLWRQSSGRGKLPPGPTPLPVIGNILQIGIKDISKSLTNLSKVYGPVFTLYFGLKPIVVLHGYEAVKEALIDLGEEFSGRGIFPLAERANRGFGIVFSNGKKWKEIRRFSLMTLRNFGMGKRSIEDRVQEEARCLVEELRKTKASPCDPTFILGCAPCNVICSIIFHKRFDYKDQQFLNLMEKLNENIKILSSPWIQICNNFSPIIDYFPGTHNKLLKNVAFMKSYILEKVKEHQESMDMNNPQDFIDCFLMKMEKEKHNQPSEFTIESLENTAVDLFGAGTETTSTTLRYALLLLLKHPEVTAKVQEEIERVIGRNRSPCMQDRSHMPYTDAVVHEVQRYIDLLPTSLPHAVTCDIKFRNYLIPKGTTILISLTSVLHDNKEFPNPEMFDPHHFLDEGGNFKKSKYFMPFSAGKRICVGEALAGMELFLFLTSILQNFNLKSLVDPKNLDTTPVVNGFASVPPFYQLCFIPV
Sequence of CYP2D6 (P10635 whole entry): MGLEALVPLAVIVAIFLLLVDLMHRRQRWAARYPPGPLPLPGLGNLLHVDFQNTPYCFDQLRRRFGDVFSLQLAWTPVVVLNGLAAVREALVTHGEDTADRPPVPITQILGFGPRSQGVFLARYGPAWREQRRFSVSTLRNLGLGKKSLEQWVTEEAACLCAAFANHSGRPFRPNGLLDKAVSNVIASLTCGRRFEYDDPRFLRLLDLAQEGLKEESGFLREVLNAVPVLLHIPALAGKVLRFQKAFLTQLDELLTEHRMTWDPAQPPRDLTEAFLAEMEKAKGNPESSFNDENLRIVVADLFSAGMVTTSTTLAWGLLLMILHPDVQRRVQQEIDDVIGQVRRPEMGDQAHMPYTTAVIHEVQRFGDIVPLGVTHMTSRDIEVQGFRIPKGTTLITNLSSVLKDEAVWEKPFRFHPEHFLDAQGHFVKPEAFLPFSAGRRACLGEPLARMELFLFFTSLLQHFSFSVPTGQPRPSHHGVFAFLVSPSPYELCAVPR
Sequence of mGlu1 P1015A mutant (Q13255 19-1194 P1015A): as the sequence (Q13255 19-1194) above, with P997A counted along it
Sequence of mGlu1 K563N mutant (Q13255 19-1194 K563N): as the sequence (Q13255 19-1194) above, with K545N counted along it

Structure (SMILES): Cc1cccnc1C(=O)Nc1ccc(N2C(=O)c3ccc(F)cc3C2=O)c(Cl)c1 [23f]
EC50 [1, 13]: > 10000 nM

Structure (SMILES): Cc1cccnc1C(=O)Nc1ccc(N2C(=O)c3cccc(Cl)c3C2=O)c(Cl)c1 [23c]
effect on amphetamine-induced hyperlocomotion [2]: behaved similarly
leftward fold shift of the DHPG concentration-response curve ([3]; 10 μM PAM, WT mGlu1): 3.4 fold
hmGlu1 % Glu Max (±SEM) ([1]; calcium mobilization): 126 ± 25%
EC50 [1, 13]: 372 nM
EC50 ([1]; hmGlu1 EC50, text and Figure 6): 370 nM
EC50 [4]: 199 nM
hmGlu4 % Glu Max ([4]; calcium mobilization): 55%
left-ward fold shift of the glutamate concentration response curve [5]: ~3 fold

Structure (SMILES): Cc1ccc2c(c1)C(=O)N(c1ccc(NC(=O)c3ncccc3C)cc1Cl)C2=O [23b]
Emax [1]: 130 ± 26%
EC50 [1, 13]: > 10000 nM

Structure (SMILES): N[C@H](C(=O)O)c1cc(O)cc(O)c1 [DHPG, (S)-3,5-dihydroxyphenylglycine]
calcium response, % of WT response [6]: ~90%
EC50 [3]: 2500 nM
calcium response, % of WT response ([7]; agonist DHPG, majority of mutants, typically): 55–75%
calcium response, % of WT [8]: ~110%

Structure (SMILES): Cc1cccnc1C(=O)Nc1ccc(N2C(=O)c3cccc(F)c3C2=O)c(Cl)c1 [23e]
Emax [1]: 90 ± 15%
EC50 [1, 13]: 418 nM

Structure (SMILES): O=C(Nc1ccc(N2C(=O)c3cccc(Cl)c3C2=O)c(Cl)c1)c1ncccc1Cl [24c, N-(3-chloro-4-(4-chloro-1,3-dioxoisoindolin-2-yl)phenyl)-3-chloropicolinamide]
IC50 [9]: > 30000 nM
effect on amphetamine-induced hyperlocomotion [2]: no effect up to the highest dose
hmGlu1 % Glu Max (±SEM) ([1]; calcium mobilization): 110 ± 15%
EC50 [1, 13]: 391 nM
EC50 ([1]; hmGlu1 pEC50 (±SEM), calcium mobilization): 389 nM
IC50 [10]: > 30000 nM
IC50 [11]: > 30000 nM
IC50 [12]: > 30000 nM

Structure (SMILES): Cc1cccnc1C(=O)Nc1ccc(N2C(=O)c3cccc(C)c3C2=O)c(Cl)c1 [23a]
Emax [1]: 101 ± 7%
EC50 [1, 13]: 176 nM

Structure (SMILES): N[C@@H](CCC(=O)O)C(=O)O [glutamate, L-glutamic acid]
calcium response, % of the WT response ([7]; agonist glutamate, mutants typically, except K563N and P1015A): 45–65%

Second part, the compound after the results:

Emax [1]: 82 ± 4%
EC50 [1, 13]: 832 nM
Structure (SMILES): Cc1ccc2c(c1)C(=O)N(c1ccc(NC(=O)c3ncccc3Cl)cc1Cl)C2=O [24b]

Emax [1]: 117 ± 9%
EC50 [1, 13]: 1140 nM
Structure (SMILES): O=C(Nc1ccc(N2C(=O)c3cccc(F)c3C2=O)c(Cl)c1)c1ncccc1Cl [24e]

Emax [1]: 110 ± 21%
EC50 [1, 13]: 177 nM
Structure (SMILES): Cc1cccc2c1C(=O)N(c1ccc(NC(=O)c3ncccc3Cl)cc1Cl)C2=O [24a]
